In ChEMBL document CHEMBL1136591, “Novel N1-(benzyl)cinnamamidine derived NR2B subtype-selective NMDA receptor antagonists” (Bioorg Med Chem Lett, 2003):

target: T1, Glutamate NMDA receptor; GRIN1/GRIN2B (Homo sapiens, UniProt Q05586+Q13224); test: Inhibition of the response to glutamate/glycine in NR1a/NR2B expressing cells; type: functional, cell-based
T1 sequence (Q13224 whole entry, other chains not shown): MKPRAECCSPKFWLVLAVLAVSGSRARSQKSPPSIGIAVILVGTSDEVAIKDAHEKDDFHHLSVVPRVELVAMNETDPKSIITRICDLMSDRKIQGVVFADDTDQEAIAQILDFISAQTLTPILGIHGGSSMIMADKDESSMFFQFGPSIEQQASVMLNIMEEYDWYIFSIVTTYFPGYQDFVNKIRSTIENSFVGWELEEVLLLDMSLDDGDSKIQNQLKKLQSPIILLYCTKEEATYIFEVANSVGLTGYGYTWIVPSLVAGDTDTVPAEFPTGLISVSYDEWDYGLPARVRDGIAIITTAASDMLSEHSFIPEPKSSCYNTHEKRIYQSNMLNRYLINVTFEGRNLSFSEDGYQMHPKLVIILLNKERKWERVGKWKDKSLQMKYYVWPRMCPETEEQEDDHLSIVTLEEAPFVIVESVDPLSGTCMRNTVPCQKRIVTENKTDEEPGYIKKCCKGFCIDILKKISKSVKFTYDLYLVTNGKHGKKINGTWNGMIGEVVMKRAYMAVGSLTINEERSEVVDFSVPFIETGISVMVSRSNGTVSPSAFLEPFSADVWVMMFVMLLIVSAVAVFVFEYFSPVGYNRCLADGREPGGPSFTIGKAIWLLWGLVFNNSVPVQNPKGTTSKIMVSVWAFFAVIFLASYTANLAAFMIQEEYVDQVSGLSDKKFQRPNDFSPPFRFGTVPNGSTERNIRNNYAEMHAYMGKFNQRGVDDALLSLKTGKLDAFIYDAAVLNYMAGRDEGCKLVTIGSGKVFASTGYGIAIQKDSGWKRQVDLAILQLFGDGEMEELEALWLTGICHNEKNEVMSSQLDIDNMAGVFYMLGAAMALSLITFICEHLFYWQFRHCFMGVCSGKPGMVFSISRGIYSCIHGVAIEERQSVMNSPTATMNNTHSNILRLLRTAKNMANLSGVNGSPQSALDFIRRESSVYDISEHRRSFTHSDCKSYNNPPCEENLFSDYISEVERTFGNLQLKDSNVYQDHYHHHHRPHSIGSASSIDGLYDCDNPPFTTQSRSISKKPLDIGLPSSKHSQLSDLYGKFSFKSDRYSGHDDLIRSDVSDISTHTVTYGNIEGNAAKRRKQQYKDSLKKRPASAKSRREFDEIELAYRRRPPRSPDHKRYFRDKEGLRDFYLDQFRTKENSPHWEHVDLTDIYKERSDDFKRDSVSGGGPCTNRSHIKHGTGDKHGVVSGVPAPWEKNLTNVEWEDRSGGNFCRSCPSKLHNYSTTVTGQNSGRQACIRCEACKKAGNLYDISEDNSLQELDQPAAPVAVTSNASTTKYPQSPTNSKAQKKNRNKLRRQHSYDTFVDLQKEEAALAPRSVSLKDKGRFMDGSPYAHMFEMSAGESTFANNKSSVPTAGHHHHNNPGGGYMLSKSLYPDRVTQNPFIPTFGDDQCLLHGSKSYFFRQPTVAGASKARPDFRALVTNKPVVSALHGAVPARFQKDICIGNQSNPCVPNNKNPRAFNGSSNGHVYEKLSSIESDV

| IC50 [nM] | Compound |
| --- | --- |
| 70 | N=C(/C=C/c1ccccc1)NCc1ccccc1 |

target: T1, Glutamate NMDA receptor; GRIN1/GRIN2B; test: Displacement of [3H]ifenprodil binding to recombinant human NR1a/NR2B receptors expressed in L(tk-) cells; type: cell-based

| Compound | Ki [nM] |
| --- | --- |
| N=C(/C=C/c1ccc(Cl)cc1)NCc1ccccc1 | 52 |
| N=C(/C=C/c1ccccc1)NCCc1ccccc1 | 97 |
| N=C(/C=C/c1ccccc1Cl)NCc1ccccc1 | 93 |
| N=C(CCc1ccccc1)NCc1ccccc1 | 530 |
| N=C(/C=C/c1ccc(F)cc1)NCc1ccccc1 | 5.7 |
| N=C(/C=C/c1ccccc1)NCc1cc(Cl)ccc1Cl | 2.7 |
| N=C(/C=C/c1ccccc1)NCc1cccc(Cl)c1 | 0.8 |
| N=C(/C=C/c1cccc(Cl)c1)NCc1ccccc1 | 12 |
| N=C(/C=C/c1ccccc1)NCc1ccccc1C(F)(F)F | 1.4 |
| N=C(/C=C/c1ccccc1)NCc1ccccc1Cl | 1 |
| N=C(/C=C/c1ccccc1)NCc1cc(Cl)cc(Cl)c1 | 1.4 |
| C[C@@H](CN1CCC(Cc2ccccc2)CC1)[C@@H](O)c1ccc(O)cc1 | 10 |
| N=C(/C=C/c1ccccc1)NCc1ccccc1OC(F)(F)F | 0.6 |

The remaining lines, values ahead:

| Ki [nM] | Compound |
| --- | --- |
| 1.6 | N=C(NCc1cccc(Cl)c1)c1ccc2ccccc2c1 |
| 32 | N=C(NCc1ccccc1)c1ccc2ccccc2c1 |
| 0.5 | CCOc1ccccc1C/N=C(N)/C=C/c1ccccc1 |
| 1.7 | N=C(/C=C/c1ccc(F)c(F)c1)NCc1ccccc1 |
| 19 | N=C(/C=C/C1CCCCC1)NCc1ccccc1 |
| 10000 | NC(=NCc1ccccc1)c1ccccc1 |
| 1.3 | COc1ccccc1C/N=C(\N)c1ccc2ccccc2c1 |
| 7.3 | N=C(NCc1ccccc1Cl)c1ccc2ccccc2c1 |
| 1.9 | COc1cccc(C/N=C(N)/C=C/c2ccccc2)c1 |
| 77 | N=C(/C=C/c1ccccc1)NCc1ccc(Cl)cc1 |
| 120 | N=C(/C=C/c1ccccc1)NCCCc1ccccc1 |
| 55 | N=C(NCCc1ccccc1)c1ccccc1 |
| 3.6 | N=C(/C=C/c1ccccc1)NCc1cccc(Cl)c1Cl |
| 31 | N=C(/C=C/c1ccccc1)NCc1cccc(C(F)(F)F)c1 |

system: Glutamate NMDA receptor GRIN1/GRIN2A (Homo sapiens); test: Inhibition of the response to glutamate/glycine in NR1a/NR2A expressing cells (No effect uM)

| IC50 | Compound |
| --- | --- |
| Not Active | N=C(/C=C/c1ccccc1)NCc1ccccc1 |
